Tests used:
[1] = system: Pioneer 39K40 hybrid maize; experiment: Test C: visual plant response rating, postemergence acetohydroxy acid synthase-inhibiting herbicides alone and with Compound 1; assay type: in vivo, Zea mays L. spp. indentata Sturt.; conditions: greenhouse, two weeks, 0-100 scale
Method: (§1) For all of the following biological tests, plant response ratings were based on a 0-100 scale where zero is growth equivalent to that of untreated plants (no plant response) and 100 represents no additional growth occurring after herbicide treatment.
Herbicide mixtures were dissolved/dispersed in a non-phytotoxic liquid carrier and were sprayed postemergence to Pioneer 39K40 hybrid maize (Zea mays L. spp. indentata Sturt.) in the third collar growth stage (extended leaf height was 40-60 cm). Treated plants were grown under greenhouse conditions for two weeks before visual evaluations of plant responses were recorded.

[2] = system: winter barley; experiment: Test F: preemergence plant response rating; assay type: in vivo, Hordeum vulgare L.; conditions: winter barley, preemergence, greenhouse, three weeks, 0-100 scale
From the text: as §1
(§2) Herbicide mixtures were formulated, dissolved/dispersed in water, and sprayed preemergence to the crops: winter wheat (Triticum aestivum L.) and winter barley (Hordeum vulgare L.), and the weed: blackgrass (Alopecurus myosuroides Huds). Treated plants were grown under greenhouse conditions for three weeks before visual evaluations of plant responses were recorded.

[3] = system: blackgrass; experiment: Test E: postemergence plant response rating; assay type: in vivo, Alopecurus myosuroides Huds.; conditions: blackgrass, postemergence, greenhouse, two weeks, 0-100 scale
From the text: as §1
(§3) Herbicide mixtures were formulated, dissolved/dispersed in water containing 0.25% non-ionic surfactant, sprayed postemergence to the crops: winter wheat (Triticum aestivum L.), spring wheat (Triticum aestivum L.), winter barley (Hordeum vulgare L.) and spring barley (Hordeum vulgare L.), and the weeds: blackgrass (Alopecurus myosuroides Huds.), lambsquarters (Chenopodium album L.) and pigweed (Amaranthus retroflexus L.). Treated plants were grown under greenhouse conditions for two weeks before visual evaluations of plant responses were recorded.

[4] = system: spring barley; experiment: Test E: postemergence plant response rating; assay type: in vivo, Hordeum vulgare L.; conditions: spring barley, postemergence, greenhouse, two weeks, 0-100 scale
From the text: as §1, §3

[5] = system: winter barley; experiment: Test E: postemergence plant response rating; assay type: in vivo, Hordeum vulgare L.; conditions: winter barley, postemergence, greenhouse, two weeks, 0-100 scale
From the text: as §1, §3

[6] = system: pigweed; experiment: Test E: postemergence plant response rating; assay type: in vivo, Amaranthus retroflexus L.; conditions: pigweed, postemergence, greenhouse, two weeks, 0-100 scale
From the text: as §1, §3

[7] = system: winter wheat; experiment: Test F: preemergence plant response rating; assay type: in vivo, Triticum aestivum L.; conditions: winter wheat, preemergence, greenhouse, three weeks, 0-100 scale
From the text: as §1, §2

[8] = system: winter wheat; experiment: Test E: postemergence plant response rating; assay type: in vivo, Triticum aestivum L.; conditions: winter wheat, postemergence, greenhouse, two weeks, 0-100 scale
From the text: as §1, §3

[9] = system: spring wheat; experiment: Test E: postemergence plant response rating; assay type: in vivo, Triticum aestivum L.; conditions: spring wheat, postemergence, greenhouse, two weeks, 0-100 scale
From the text: as §1, §3

[10] = system: blackgrass; experiment: Test F: preemergence plant response rating; assay type: in vivo, Alopecurus myosuroides Huds; conditions: blackgrass, preemergence, greenhouse, three weeks, 0-100 scale
From the text: as §1, §2

[11] = system: lambsquarters; experiment: Test E: postemergence plant response rating; assay type: in vivo, Chenopodium album L.; conditions: lambsquarters, postemergence, greenhouse, two weeks, 0-100 scale
From the text: as §1, §3

[12] = herbicide 17.5 g ai/ha + Compound 1 125 g ai/ha
[13] = herbicide 35 g ai/ha + Compound 1 125 g ai/ha
[14] = herbicide 32 g ai/ha + Compound 1 125 g ai/ha
[15] = herbicide 64 g ai/ha + Compound 1 125 g ai/ha
[16] = herbicide 10 g ai/ha + Compound 1 125 g ai/ha
[17] = herbicide 20 g ai/ha + Compound 1 125 g ai/ha

Compound: Imazamethabenz
- Observed Response, Herbicide mixture with Compound 1 [1, 12]: 100
- Observed Response, Herbicide alone ([1]; herbicide 17.5 g ai/ha): 100

Compound: COC(=O)c1c(Cl)nn(C)c1S(=O)(=O)NC(=O)Nc1nc(OC)cc(OC)n1 [Halosulfuron-methyl, halosulfuron-methyl]
- Observed Response, Herbicide mixture with Compound 1 [1, 12]: 10
- Observed Response, Herbicide alone ([1]; herbicide 17.5 g ai/ha): 37

Compound: COC(=O)c1ccc(CNS(C)(=O)=O)cc1S(=O)(=O)NC(=O)Nc1nc(OC)cc(OC)n1 [Mesosulfuron-methyl, mesosulfuron-methyl]
- Observed Response, Herbicide mixture with Compound 1 [1, 12]: 100
- Observed Response, Herbicide alone ([1]; herbicide 17.5 g ai/ha): 100

Compound: CC(C)C1(C)N=C(c2nc3ccccc3cc2C(=O)O)NC1=O (centres unmarked) [Imazaquin, imazaquin]
- Observed Response, Herbicide mixture with Compound 1 [1, 12]: 100
- Observed Response, Herbicide alone ([1]; herbicide 17.5 g ai/ha): 100

Compound: CCOC(=O)c1ccccc1S(=O)(=O)NC(=O)Nc1nc(Cl)cc(OC)n1 [Chlorimuron-ethyl, chlorimuron-ethyl]
- Observed Response, Herbicide mixture with Compound 1 ([1]; herbicide 8 g ai/ha + Compound 1 125 g ai/ha): 53
- Observed Response, Herbicide alone ([1]; herbicide 8 g ai/ha): 96

Compound: COC(=O)c1cccc(C)c1S(=O)(=O)NC(=O)Nc1nc(OCC(F)(F)F)nc(N(C)C)n1 [Triflusulfuron-methyl, triflusulfuron-methyl]
- Observed Response, Herbicide mixture with Compound 1 [1, 13]: 100
- Observed Response, Herbicide alone ([1]; herbicide 35 g ai/ha): 100

Compound: COC(=O)c1ccc(I)cc1S(=O)(=O)NC(=O)Nc1nc(C)nc(OC)n1 [Iodosulfuron-methyl, iodosulfuron-methyl]
- Observed Response, Herbicide mixture with Compound 1 [1, 12]: 57
- Observed Response, Herbicide alone ([1]; herbicide 17.5 g ai/ha): 100

Compound: COC(=O)c1ccc(C(F)(F)F)nc1S(=O)(=O)NC(=O)Nc1nc(OC)cc(OC)n1 [Flupyrsulfuron-methyl-sodium, flupyrsulfuron-methyl-sodium]
- Observed Response, Herbicide mixture with Compound 1 [2, 14]: 40
- Observed Response, Herbicide alone ([2]; herbicide 32 g ai/ha): 75
- Observed Response, Herbicide mixture with Compound 1 [2, 15]: 35
- Observed Response, Herbicide alone ([2]; herbicide 64 g ai/ha): 90
- Observed Response, Herbicide mixture with Compound 1 [3, 16]: 99
- Observed Response, Herbicide alone ([3]; herbicide 10 g ai/ha): 98
- Observed Response, Herbicide mixture with Compound 1 [3, 17]: 99
- Observed Response, Herbicide alone ([3]; herbicide 20 g ai/ha): 99
- Observed Response, Herbicide mixture with Compound 1 [4, 16]: 23
- Observed Response, Herbicide alone ([4]; herbicide 10 g ai/ha): 47
- Observed Response, Herbicide mixture with Compound 1 [4, 17]: 43
- Observed Response, Herbicide alone ([4]; herbicide 20 g ai/ha): 53
- Observed Response, Herbicide mixture with Compound 1 [5, 16]: 12
- Observed Response, Herbicide alone ([5]; herbicide 10 g ai/ha): 42
- Observed Response, Herbicide mixture with Compound 1 [5, 17]: 27
- Observed Response, Herbicide alone ([5]; herbicide 20 g ai/ha): 42
- Observed Response, Herbicide mixture with Compound 1 [6, 16]: 96
- Observed Response, Herbicide alone ([6]; herbicide 10 g ai/ha): 100
- Observed Response, Herbicide mixture with Compound 1 [6, 17]: 97
- Observed Response, Herbicide alone ([6]; herbicide 20 g ai/ha): 99
- Observed Response, Herbicide mixture with Compound 1 [7, 14]: 10
- Observed Response, Herbicide alone ([7]; herbicide 32 g ai/ha): 30
- Observed Response, Herbicide mixture with Compound 1 [7, 15]: 33
- Observed Response, Herbicide alone ([7]; herbicide 64 g ai/ha): 40
- Observed Response, Herbicide mixture with Compound 1 [8, 16]: 0
- Observed Response, Herbicide alone ([8]; herbicide 10 g ai/ha): 17
- Observed Response, Herbicide mixture with Compound 1 [8, 17]: 0
- Observed Response, Herbicide alone ([8]; herbicide 20 g ai/ha): 18
- Observed Response, Herbicide mixture with Compound 1 [9, 16]: 3
- Observed Response, Herbicide alone ([9]; herbicide 10 g ai/ha): 18
- Observed Response, Herbicide mixture with Compound 1 [9, 17]: 0
- Observed Response, Herbicide alone ([9]; herbicide 20 g ai/ha): 22
- Observed Response, Herbicide mixture with Compound 1 [10, 14]: 90
- Observed Response, Herbicide alone ([10]; herbicide 32 g ai/ha): 95
- Observed Response, Herbicide mixture with Compound 1 [10, 15]: 97
- Observed Response, Herbicide alone ([10]; herbicide 64 g ai/ha): 95
- Observed Response, Herbicide mixture with Compound 1 [11, 16]: 83
- Observed Response, Herbicide alone ([11]; herbicide 10 g ai/ha): 78
- Observed Response, Herbicide mixture with Compound 1 [11, 17]: 87
- Observed Response, Herbicide alone ([11]; herbicide 20 g ai/ha): 87

Compound: CCCOc1nn(C(=O)[N-]S(=O)(=O)c2ccccc2C(=O)OC)c(=O)n1C.[Na+] [Propoxycarbazone-sodium, propoxycarbazone]
- Observed Response, Herbicide mixture with Compound 1 [1, 13]: 100
- Observed Response, Herbicide alone ([1]; herbicide 35 g ai/ha): 100

Reference: US20130005568A1, “SAFENED HERBICIDAL MIXTURES” (E.I. DU PONT DE NEMOURS AND COMPANY, priority 2011, published 2013)
